The record followed here is patent publication US11186576B2, “Pyrazolo[1,5-A][1,3,5]triazine and pyrazolo[1,5-A]pyrimidine derivatives as CDK inhibitors” (Aurigene Discovery Technologies Limited, priority 2015, dated 2021).

The target of one assay is CDK7/CycH/MNAT1 (Homo sapiens (Human), UniProt P50613). The assay is described as follows: Biochemical assay for CDK7 (TR-FRET kinase assay). Particulars: 60 min pre-incubation, 1 mM ATP; for inhibition at 10 µM: 10 μM compound, read-out: % inhibition @ 10 μM; for IC50: read-out: IC50. The essentials: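 CDK7/CycH/MNAT1 (5 nM) was preincubated with compound for 60 min at room temperature, then reacted for 60 min with 100 nM ULight-MBP and 1 mM ATP in 1% DMSO. Irreversibility was probed with 20, 60 and 180 min preincubations.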
(In general: TR-FRET usually uses a lanthanide donor and a delayed reading to cut background.)

The subject of assay [1] is RNA polymerase II CTD phosphorylation (MDA-MB-231/NCI-H358 cells). The assay is described as follows: Inhibition of RNA polymerase II CTD phosphorylation in cell western assay. The class given is cell-based. The note with it: 4 hours incubation, phospho RNA Pol II Ser-5 or Ser-2. A digest of the protocol: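 MDA-MB-231 or NCI-H358 cells treated 4 h at 37 °C with 3-fold dilutions from 10 μM, then fixed and immunostained for phospho-Ser5 or phospho-Ser2 RNA Pol II CTD. Europium-labelled secondaries give the time-resolved fluorescence read-out, normalised to Hoechst; EC50 reported in binned ranges.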

Structures are written as SMILES.

CDK7/CycH/MNAT1, sequence (P50613 whole entry): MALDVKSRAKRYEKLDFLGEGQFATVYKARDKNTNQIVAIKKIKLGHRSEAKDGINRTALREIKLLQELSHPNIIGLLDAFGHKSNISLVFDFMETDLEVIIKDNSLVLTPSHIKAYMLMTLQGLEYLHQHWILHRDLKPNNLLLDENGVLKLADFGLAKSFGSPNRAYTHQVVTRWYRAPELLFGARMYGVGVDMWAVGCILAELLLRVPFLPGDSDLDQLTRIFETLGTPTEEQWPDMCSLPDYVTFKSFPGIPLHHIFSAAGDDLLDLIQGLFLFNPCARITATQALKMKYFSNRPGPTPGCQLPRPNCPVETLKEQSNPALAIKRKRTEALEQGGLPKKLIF
CDK7/CycH/MNAT1, sequence (P51946 whole entry partner): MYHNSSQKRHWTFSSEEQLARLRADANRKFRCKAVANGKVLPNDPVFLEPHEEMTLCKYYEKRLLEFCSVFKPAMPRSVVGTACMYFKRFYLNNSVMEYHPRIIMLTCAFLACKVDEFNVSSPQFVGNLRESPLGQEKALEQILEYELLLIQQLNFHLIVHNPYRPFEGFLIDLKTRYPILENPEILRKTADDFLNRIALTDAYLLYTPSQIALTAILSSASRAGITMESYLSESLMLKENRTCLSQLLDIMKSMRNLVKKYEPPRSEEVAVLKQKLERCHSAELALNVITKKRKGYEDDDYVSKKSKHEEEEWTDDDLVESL
CDK7/CycH/MNAT1, sequence (P51948 whole entry partner): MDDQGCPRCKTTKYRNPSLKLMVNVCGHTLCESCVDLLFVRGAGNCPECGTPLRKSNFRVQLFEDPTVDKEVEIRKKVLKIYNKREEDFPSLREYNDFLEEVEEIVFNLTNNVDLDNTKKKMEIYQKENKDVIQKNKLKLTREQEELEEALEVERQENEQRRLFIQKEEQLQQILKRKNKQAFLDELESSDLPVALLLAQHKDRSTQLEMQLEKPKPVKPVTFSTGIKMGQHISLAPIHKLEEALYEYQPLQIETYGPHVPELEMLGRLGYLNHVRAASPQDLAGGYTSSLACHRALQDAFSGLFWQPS

In general, inhibition refers to the share of the control response that was lost under treatment. By IC50 is commonly meant the concentration that inhibits the measured activity by half. The EC50 is the concentration giving half of the maximal effect. A low value points to higher potency in that assay. On to `CC(C)c1cnn2c(NCc3ccc(F)c(NC(=O)[C@H]4CC[C@@H](NC(=O)/C=C/CN(C)C)CC4)c3)nc(OC3CCN(C)CC3)nc12` [Compound 124, (1,4-cis)-4-((E)-4-(dimethylamino)but-2-enamido)-N-(2-fluoro-5-(((8-isopropyl-2-((1-methylpiperidin-4-yl)oxy)pyrazolo[1,5-a][1,3,5]triazin-4-yl)amino)methyl)phenyl)cyclohexane-1-carboxamide], for which, on CDK7/CycH/MNAT1, the inhibition at 10 µM turned out to be 94% and the IC50 is < 0.3 µM. Moreover, in assay [1], the EC50 is > 10 µM.
Consider `C=CC(=O)Nc1ccc(C(=O)Nc2cccc(Nc3nc(OC4CCN(C)CC4)nc4c(C(C)C)cnn34)c2)cc1` [Compound 125, 4-acrylamido-N-(3-((8-isopropyl-2-((1-methylpiperidin-4-yl)oxy)pyrazolo[1,5-a][1,3,5]triazin-4-yl)amino)phenyl)benzamide], for which, on CDK7/CycH/MNAT1, the inhibition at 10 µM came to 86% and the IC50 was < 0.3 µM. Further, the EC50 in assay [1] was ≤ 1 µM.
Taken in the same sequence, the figures for `C=CC(=O)N1CCC(NC(=O)c2cccc(Nc3nc(OC4CCN(C)CC4)nc4c(C(C)C)cnn34)c2)CC1` [Compound 128, N-(1-acryloylpiperidin-4-yl)-3-((8-isopropyl-2-((1-methylpiperidin-4-yl)oxy)pyrazolo[1,5-a][1,3,5]triazin-4-yl)amino)benzamide] were 93%, < 0.3 µM and 1 to 10 µM.
The matching figures for `C=CC(=O)N1CCCC(NC(=O)c2cccc(Nc3nc(OC4CCN(C)CC4)nc4c(C(C)C)cnn34)c2)C1` (stereo not drawn) [Compound 129, N-(1-acryloylpiperidin-3-yl)-3-((8-isopropyl-2-((1-methylpiperidin-4-yl)oxy)pyrazolo[1,5-a][1,3,5]triazin-4-yl)amino)benzamide]: 94%, < 0.3 µM and 1 to 10 µM.
Consider `CC(C)c1cnn2c(Nc3cccc(NC(=O)C4CCC(NC(=O)/C=C/CN(C)C)CC4)c3)nc(OC3CCN(C)CC3)nc12` (stereo not drawn) [Compound 131, (1s,4s)-4-((E)-4-(dimethylamino)but-2-enamido)-N-(3-((8-isopropyl-2-((1-methylpiperidin-4-yl)oxy)pyrazolo[1,5-a][1,3,5]triazin-4-yl)amino)phenyl)cyclohexane-1-carboxamide], for which, at CDK7/CycH/MNAT1, the inhibition at 10 µM turned out to be 86% and the 50% inhibitory concentration (IC50) was 0.3 to 1 µM. Moreover, the EC50 in assay [1] is > 10 µM.
Taken in the same sequence, the figures for `CC(C)c1cnn2c(Nc3cccc(NC(=O)[C@H]4CC[C@H](NC(=O)/C=C/CN(C)C)CC4)c3)nc(OC3CCN(C)CC3)nc12` [Compound 132, (1,4-Trans)-4-((E)-4-(dimethylamino)but-2-enamido)-N-(3-((8-isopropyl-2-((1-methylpiperidin-4-yl)oxy)pyrazolo[1,5-a][1,3,5]triazin-4-yl)amino)phenyl)cyclohexane-1-carboxamide] were 90%, < 0.3 µM and > 10 µM.
Taken in the same sequence, the figures for `CC(C)c1cnn2c(Nc3cccc(C(=O)NC4CCN(C(=O)/C=C/CN(C)C)CC4)c3)nc(OC3CCN(C)CC3)nc12` [Compound 134, (E)-N-(1-(4-(dimethylamino)but-2-enoyl)piperidin-4-yl)-3-((8-isopropyl-2-((1-methylpiperidin-4-yl)oxy)pyrazolo[1,5-a][1,3,5]triazin-4-yl)amino)benzamide] were 97%, < 0.3 µM and 1 to 10 µM.
